Molecules are shown by their SMILES.

This series in a line: gradient 5% acetonitrile 3 min, to 50% in 2 min, to 85% in 15 min, held 3 min, 100 µL/min. The following applies: column: Zorbax Extend-C18 2.1 x 50 mm; eluents: water / acetonitrile, 0.1% formic acid. Put shortly: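 A Zorbax Extend-C18 column (2.1 × 50 mm, 1.8 μm) run at 100 μL/min with water and acetonitrile, both containing 0.1% formic acid, separated mixtures of ~100 pure standards. The HPLC was coupled to a quadrupole time-of-flight mass spectrometer operated in positive and negative ionization mode, with dead and dwell volumes of 40 μL and 900 μL. Each retention time was taken from a computationally picked adduct peak that was then manually inspected.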
Take `CCc1ccccc1NC(=O)Cn1c(N)nc(C(C)C)cc1=O`: the RP-LC retention time came to 638 s. For `O=C(CSc1ccc(-c2cccnc2)nn1)NCC1CCCO1` (centres undefined) the value was 548 s; for `O=C(NCc1cccc(F)c1)N1CCCC(Cn2cnc3cccnc32)C1` (centres undefined), 652 s. For `CCn1c(C)c(CCC(=O)Nc2ccc(C)c(C)c2)c(=O)n2nc(-c3ccccc3)nc12` the value was 935 s; for `Cc1cc(NC(=O)CCCSc2ccc(F)cc2)no1`, 838 s; for `COc1ccc(OC(=O)c2cc3c(C)nn(-c4cccc(F)c4)c3s2)cc1`, 1460 s. For `COc1ccc(CNC(=O)Nc2ccc(-c3nc(-c4ccc(C)cc4C)co3)cc2)cc1` the value was 1180 s.

In turn, `Cc1ccc(C(=O)N2CC(n3cc(COCC4CC4)nn3)C2)c(=O)[nH]1` returned an RP-LC retention time of 595 s. With `Cc1cc(C)n(Cc2nc(-c3ccc(NC(=O)C4CCCCC4)cc3)oc2C)n1` the figure was 1000 s. With `CCCN1C(=O)C(CC(=O)NCC(C)C)Sc2ncccc21` (centres undefined) the figure was 741 s; with `CCOc1cc2c(cc1OCC)C(c1ccc(OC)c(OC)c1OC)CC(=O)N2` (centres undefined), 836 s; with `CCc1ccccc1S(=O)(=O)N1CC=C(c2cn(C)c3ncccc23)CC1`, 1090 s. For `Cc1nn2c(CNC(=O)c3cccc(C(F)(F)F)c3)c(C)nc2s1` the value was 688 s; for `Oc1ccc2c3c1OC1C(O)CC[C@@]4(O)[C@@H](C2)N(CC2CCC2)CC[C@]314` (some centres undefined), 619 s. The molecule `Fc1ccccc1-c1noc(N2CCOCC2)n1` came in with an RP-LC retention time of 796 s. For `CN1C(=O)CCC2(CNC(=O)c3cccn3C)CCC=C12` (centres undefined) the value was 720 s; for `C=CCN1C(=O)COc2ccc(-c3nc(NC(=O)c4ccncc4)sc3C)cc21`, 810 s; for `COc1cccc(Cn2cccc(S(=O)(=O)N3CCC(C)CC3)c2=O)c1`, 954 s. With `CCOC(=O)c1cccc(NC(=O)NC2COc3ccc(OC)cc3C2)c1` (centres undefined) the figure was 906 s. With `O=C(NCc1ccccn1)C1CN(C(=O)c2c[nH]c3ccccc23)C1` the figure was 541 s.

Molecule `Cn1nnnc1NCc1ccc2c(c1)n(C)c(=O)n2C` came in with an RP-LC retention time of 597 s. With `Cc1cc(C)cc(NC(=O)NCCc2c(C)nn(C)c2C)c1` the figure was 664 s; with `CCN(CC)S(=O)(=O)c1ccc(C)c(-c2nnc(-c3ccc(Cl)cc3)o2)c1`, 1200 s. For `Cc1cc(C2CCCN2C(=O)Cc2ccc(F)cc2Cl)on1` (centres undefined) the value was 851 s; for `Cc1ccc(-n2cc3c(N4CCCC(C(=O)NCc5ccc(C(C)C)cc5)C4)ncnc3n2)cc1` (centres undefined), 836 s.

In turn, `COc1ccc(C2Cn3nnc(C(=O)N4CCC(C(=O)NC5CCCCC5)CC4)c3CO2)cc1` (centres undefined) gave an RP-LC retention time of 860 s. Consider `CCn1cnc2ccc(-c3noc(-c4ccc(OC)cc4C)n3)cc21`, for which the RP-LC retention time came to 741 s.

As to `Cc1sc2ccn(CC(C)C)c(=O)c2c1C(=O)NCc1cc(F)cc(F)c1`, the RP-LC retention time was found to be 1070 s. With `CCOC(=O)c1c(C)oc2nc(C)nc(NCCc3ccc(OCC)cc3)c12` the figure was 1270 s. For `Cc1oc(-c2[nH]ncc2C(=O)N2CCCCC2)cc1S(=O)(=O)Nc1ccc(Cl)cc1` the value was 799 s. With `COC(=O)c1ccccc1C(=O)N(Cc1cccnc1)c1nc2ccc(F)cc2s1` the figure was 722 s; with `Cc1cccc(N2CCN(c3cc(C(=O)O)c4cc(NC(=O)C5CCCC5)ccc4n3)CC2)c1C`, 799 s. Turning to `Cc1cc(C)cc(NC(=O)CN2CCC(C(=O)Nc3ccc(C(N)=O)cc3)CC2)c1`, the RP-LC retention time turned out to be 571 s.

With `CC1=NS(=O)(=O)N(C)C=C1C(=O)OCc1cccc(Cl)c1`, the RP-LC retention time was 968 s. For `CCOc1ccc(N2C(=O)C3N=NN(Cc4nc(-c5ccc(Cl)cc5)no4)C3C2=O)cc1` (centres undefined) the value was 722 s; for `Cn1cc(CC(=O)NCc2ccccc2Cl)c2cccnc21`, 706 s.

Take `Cc1nnc(C2CC3(CCN(CCCO)CC3)CN2CCc2ccccc2)o1` (centres undefined): the RP-LC retention time is 572 s. `CCc1ccc(S(=O)(=O)NCC(c2cccs2)N2CCOCC2)s1` (centres undefined) showed an RP-LC retention time of 644 s.

In turn, `COCC(=O)NC1CCC12CCN(C(=O)c1cccs1)CC2` (centres undefined) showed an RP-LC retention time of 669 s. With `Cc1ccc(-c2noc(Cn3ncn4nc(-c5ccc(Br)cc5)cc4c3=O)n2)cc1` the figure was 1280 s; with `CN(C)c1ccc(CNC(=O)CN2c3ccccc3NC3=C(C(=O)CCC3)C2c2ccco2)cc1` (centres undefined), 628 s. In turn, `CC(C)N1CCN(C(=O)c2cn(-c3cc(N4CCSCC4)ncn3)cn2)CC1` had an RP-LC retention time of 596 s. As to `COc1ccc(-c2ccc(=O)n(Cc3nc(-c4cccc(Cl)c4)no3)n2)cc1OC`, the RP-LC retention time is 976 s. For `O=S(=O)(c1ccccc1F)N1CCN(Cc2cccc(F)c2)C2(CCOCC2)C1` the value was 807 s; for `CCn1nnc2cc(-c3noc(C4CC(=O)N(c5ccc(C)cc5)C4)n3)ccc21` (centres undefined), 880 s. For `CCCNC(=O)C1CC(=O)N(CCc2c[nH]c3ccc(F)cc23)C1` (centres undefined) the value was 684 s; for `CN(C)c1ccc(CNC(=O)CCCN2C(=O)CCn3nc(-c4cccn4C)cc32)cc1`, 610 s; for `O=C(Cc1cccc(F)c1)Nc1cc(-c2ccccn2)no1`, 800 s.

For the molecule `Cc1ccc2c(c1)N(S(C)(=O)=O)CCC(C(=O)Nc1ccc(F)cc1F)O2` (centres undefined), the RP-LC retention time was 958 s. In turn, `CC(C)N1CCn2cc(S(=O)(=O)Nc3ccc(Cl)cc3)cc2C1=O` came in with an RP-LC retention time of 805 s. For `CCOc1ccccc1CN1CCn2c(nnc2[C@@H]2C[C@@H](O)CN2Cc2cccnc2)C1` the value was 581 s. `COc1ccc(C2Cn3cnc(C(=O)N4CCC(C(=O)NCC5CCCO5)CC4)c3CO2)cc1` (centres undefined) registered an RP-LC retention time of 655 s. With `CCCc1cc(N2CCN(C(=O)c3ccc4c(c3)OCO4)CC2)nc2nnc(C)n12` the figure was 624 s; with `CC(NC(=O)C(=O)NC1CCCCC1)C(c1cccs1)N1CCOCC1` (centres undefined), 604 s; with `CCCN(C)C(=O)CCC1CCN(c2cc(NCC)ncn2)CC1`, 571 s. For `CC(C)NC(=O)c1ccc(-c2nc3cc(NS(=O)(=O)c4ccc(F)c(F)c4)ccc3n2C)cc1` the value was 721 s.

The molecule `CCOC(=O)c1ccc(Nc2nnc(CSc3nc(C)cc(C)n3)s2)cc1` had an RP-LC retention time of 834 s. Consider `Cc1ccccc1NC(=O)Cn1nc(N2CCCC(C)C2)c2ccccc2c1=O` (centres undefined), for which the RP-LC retention time worked out at 1120 s. With `COCC(=O)N1CCCc2ccc(NC(=O)C3CC(=O)N(c4ccc(F)cc4)C3)cc21` (centres undefined) the figure was 681 s; with `Cc1ccc(CN2C(=O)NC3(CCCN(C(=O)c4ccc5c(c4)OCO5)C3)C2=O)cc1` (centres undefined), 819 s. With `CCCCn1cc(S(=O)(=O)NCc2ccccc2Cl)c2cccnc21` the figure was 996 s; with `CC(NC(=O)c1ccco1)c1nc2ccccc2n1CC(=O)N1CCOCC1` (centres undefined), 586 s; with `Cn1cc(-c2cc3n(n2)CCC(=O)N3CC(=O)NCc2ccccc2Cl)c2ccccc21`, 830 s.

`Cc1nn(-c2nc(-c3ccc(F)cc3)cs2)c(C)c1CC(=O)Nc1cccc(Cl)c1` registered an RP-LC retention time of 772 s. For `Cc1ccn2cc(C(=O)NCc3ccc(F)cc3)nc2c1` the value was 645 s; for `CN(C1CCc2nn(CC3CC3)c(=O)n2CC1)S(=O)(=O)c1ccccc1C(F)(F)F` (centres undefined), 831 s. For `Oc1c(C(c2ccccn2)N2CCN(c3ccccc3F)CC2)ccc2cccnc12` (centres undefined), the RP-LC retention time turned out to be 567 s.

Consider `CC1CCN(C(=O)Cc2nnc3cc(-c4nc(C5CC5)no4)ccn23)CC1`, for which the RP-LC retention time turned out to be 759 s. With `CCCn1c(=O)c2c(C(=O)N3CCN(c4ccc(Cl)cc4)CC3)cc(=O)n(CCC)c2n(C)c1=O` the figure was 1210 s; with `CC(=O)Nc1cc(C(=O)NCCN(C)C)ccc1Sc1ccc(Cl)cc1`, 589 s; with `CCOC(=O)c1cc(C)nc2c1c(=O)n(Cc1ccc(OC)cc1)c(=O)n2C`, 1020 s. As for `Cc1nnc(NC(=O)CSc2ccc(-c3sc(-c4cccnc4)nc3C)nn2)s1`, the RP-LC retention time came out at 622 s. For `CCn1c(CCNC(=O)Cc2ccc(Cl)cc2)nc2cccnc21` the value was 639 s. For `O=C(c1cncnc1)N1CCC(F)(F)C(COCC2CC2)C1` (centres undefined) the value was 683 s; for `Cc1ccc(-c2noc(C3CC3)n2)cc1S(=O)(=O)N1CCC(C(=O)N2CCc3ccccc32)CC1`, 1140 s; for `COc1ccc(NC(=O)C2CCc3nc(N4CCOCC4)ncc3C2)cc1C(F)(F)F` (centres undefined), 858 s. `COc1cc(OC)c(NC(=O)N(C)Cc2nc3cc(C(=O)N(C)C)ccc3n2C)cc1Cl` yielded an RP-LC retention time of 619 s.

In the case of `CCOc1ccc(NC(=O)Cc2c(C)nn(-c3nc(-c4ccc(Cl)cc4)cs3)c2C)cc1`, the RP-LC retention time turned out to be 1260 s.

The molecule `Cc1nnc2ccc(N3CCOCC3)nn12` yielded an RP-LC retention time of 600 s.

These data come from the METLIN SMRT retention time set (Domingo-Almenara et al. 2019).
